Data taken from patent US5169863A, “Hypersphyxia-causing methods” (K.K. Ueno Seiyaku Oyo Kenkyujo, priority 1988, dated 1992).

Columns and labels:
[1] = progressing a breath (change rate of breath rate); type: in vivo, Wister male rats; conditions: tail vein, rats; for change in vivo at 1 mg/kg: Rattus norvegicus, iv
Method: Wister male rats (8 weeks old) were applied to anesthesia by intraperitoneal administration with 1.25 g/kg of urethane. A pick-up for breath was fixed on a top of a rat's nose, and the breath curve was recorded on a polygraph while the breath rate was counted with a tachometer.
Each test compound was dissolved in ethanol and administered to rats through a tale vein in 1 mg/kg as diluted with Ringer's solution just before use. The maximum concentration of ethanol was 2 percent. Ringers solution containing ethanol but not containing test compound was administered at every experiment as a control. The change rates (%) of the breath rate before and after administration were determined, and evaluated as progressing activity of breath.

[2] = changing rate of blood pressure and heart rate by intravenous injection in anesthetized rats; type: in vivo, Wister male rats; conditions: for change in vivo at 1 mg/kg: Rattus norvegicus; for blood pressure effect (in words): Example 1 conclusion
Method: (blood pressure, heart rate increasing action by intravenous injection) Wister male rats (8 weeks old) were used as test animals. The rats were applied to anesthesia by intraperitoneal administration with 1.25 g/kg of urethane. The blood pressure was determined by inserting a polyethylene tube into a femoral artery, which was connected with a pressure transducer. The heart rate was determined from R wave of electrocardiograms (ECG) induced by standard limb lead II with a tachometer. Each test compound was dissolved in ethanol and intravenously administered to rats in 1 mg/kg diluted with Ringer's solution just before use. The maximum concentration of ethanol was 2 percent. An ethanol-containing Ringer without any test compound was used as a control to confirm the influence of the ethanol in each experiment. Each changing rate (%) in the blood pressure and heart rate before and after administration was determined, and the average of 3-4 experiments was shown in Table 1. Changing rates of blood pressure and heart rate were determined in the same manner as described in Example 1 except that the test compounds 60, 61 and 62 were used in different concentrations instead of the test compounds 1-55.

[3] = 1 (mg/kg), Table 1, read-out: changing rate of blood pressure
[4] = 1 (mg/kg), Table 1, read-out: changing rate of heart rate

| SMILES | change in vivo at 1 mg/kg [1] [%] | change in vivo at 1 mg/kg [2, 3] [%] | change in vivo at 1 mg/kg [2, 4] [%] | other results |
| --- | --- | --- | --- | --- |
| CCCCCC(=O)CC[C@H]1[C@H](O)CC(=O)[C@@H]1C/C=C\CCCC(=O)OCCC [Compound 23, 13,14-dihydro-15-keto-PGE2 n-propyl ester] | 37 | 5 | 4 |  |
| CCCCC(F)C(=O)CC[C@H]1[C@H](O)CC(=O)[C@@H]1CC(=O)CCCCC(=O)OCC (stereo partly drawn) [Compound 13, 13,14-dihydro-6,15-diketo-16R,S-fluoro-PGE1 ethyl ester] | 53 | 11 | 20 |  |
| CCCCCC(=O)CC[C@H]1[C@H](O)CC(=O)[C@@H]1C/C=C\CC(C)CC(=O)OCC (stereo partly drawn) [Compound 29, 13,14-dihydro-15-keto-3R,S-methyl-PGE2 ethyl ester] | 11 | 7 | 17 |  |
| CCCCCC(=O)CC[C@H]1[C@H](O)CC(=O)[C@@H]1C/C=C\CCCC(=O)O [Compound 20, 13,14-dihydro-15-keto-PGE2, reference compound] | 12 | -15 | 0 | blood pressure effect (in words) [2]: blood pressure decreasing effect |
| CC(C)=CCCCCC(=O)CC[C@H]1[C@H](O)CC(=O)[C@@H]1C/C=C\CCCC(=O)O [Compound 49, 13,14-dihydro-15-keto-20-isopropylidene-PGE2] | 18 | 2 | 3 |  |
| CCCCCC(=O)CC[C@H]1[C@H](O)CC(=O)[C@@H]1C/C=C\CCCC(=O)OCCO [Compound 26, 13,14-dihydro-15-keto-PGE2 hydroxyethyl ester] |  |  |  | progressing activity % of breath ([1]; 1 mg/kg): +22%; changing rate of blood pressure ([2]; 0.2, Table 1): 0%; changing rate of heart rate ([2]; 0.2, Table 1): 0%; changing rate of blood pressure ([2]; 0.5, Table 1): 0%; changing rate of heart rate ([2]; 0.5, Table 1): 0%; changing rate of blood pressure ([2]; 1 (mg/kg), Table 1): +2%; changing rate of heart rate ([2]; 1 (mg/kg), Table 1): +7% |
| CCCCC[C@H](O)/C=C/[C@H]1[C@H](O)CC(=O)[C@@H]1C/C=C\CCCC(=O)OC [Compound 58, PGE2 methyl ester, reference compound] | 35 | -11 | 33 | blood pressure effect (in words) [2]: blood pressure decreasing effect |
| CCCCC(C)C(=O)CC[C@H]1[C@H](O)CC(=O)[C@@H]1C/C=C\CC(C)CC(=O)OC (stereo partly drawn) [Compound 32, 13,14-dihydro-15-keto-3R,S-16R,S-dimethyl-PGE2 methyl ester] | 41 | 14 | 30 |  |
| COCCCCCC(=O)CC[C@H]1[C@H](O)CC(=O)[C@@H]1C/C=C\CC=CC(=O)OC [Compound 46, 13,14-dihydro-15-keto-20-methoxy-Δ^2 -PGE2 methyl ester] | 10 | 5 | 13 |  |
| COC(=O)CCCCC(=O)C[C@H]1C(=O)C[C@@H](O)[C@@H]1CCC(=O)CCCC(C)C [Compound 14, 13,14-dihydro-6,15-diketo-19-methyl-PGE1 methyl ester] | 33 | 12 | 22 |  |
| CCCCCC(=O)CC[C@H]1[C@H](O)CC(=O)[C@@H]1C/C=C\CC=CC(=O)OC [Compound 27, 13,14-dihydro-15-keto-Δ^2 -PGE2-methyl ester] | 11 | 6 | 21 |  |
| CCCCCC(=O)CC[C@H]1[C@H](O)CC(=O)[C@@H]1C/C=C\CCCC(=O)OCCCC [Compound 24, 13,14-dihydro-15-keto-PGE2 n-butyl ester] | 41 | 5 | 5 |  |
| CCCCCC(=O)CC[C@H]1[C@H](C)CC(=O)[C@@H]1C/C=C\CCCC(=O)OCC [Compound 41, 13,14-dihydro-15-keto-11-dehydroxy-11R-methylPGE2 ethyl ester] | 20 | 11 | 26 |  |
| CCCCCC(=O)CC[C@H]1[C@H](O)CC(=O)[C@@H]1CC(=O)CCCCC(=O)OCCCC [Compound 9, 13,14-dihydro-6,15-diketo-PGE1 n-butyl ester] | 26 | 2 | 26 |  |
| CCCCCC(=O)CC[C@H]1[C@H](O)CC(=O)[C@@H]1CC(=O)CCCCC(=O)OC [Compound 6, 13,14-dihydro-6,15-diketo-PGE1 methyl ester] | 21 | 3 | 9 |  |
| CCCCC(C)C(=O)CC[C@H]1[C@H](O)CC(=O)[C@@H]1C/C=C\CCCC(=O)OCC (stereo partly drawn) [Compound 31, 13,14-dihydro-15-keto-16R,S-methyl-PGE2 ethyl ester] | 40 | 14 | 46 |  |
| CCCCCCCC(=O)CC[C@H]1[C@H](O)CC(=O)[C@@H]1C/C=C\CCCC(=O)OC [Compound 51, 13,14-dihydro-15-keto-20-ethyl-PGE2 methyl ester] | 49 | 1 | 14 |  |
| CCCCC(F)C(=O)CC[C@H]1[C@H](O)CC(=O)[C@@H]1C/C=C\CCCC(=O)OCC (stereo partly drawn) [Compound 38, 13,14-dihydro-15-keto-16R,S-fluoro-PGE2 ethyl ester] | 47 | 14 | 15 |  |
| CCCCC(F)C(=O)CC[C@H]1[C@H](C)CC(=O)[C@@H]1C/C=C\CCCC(=O)OCC (stereo partly drawn) [Compound 40, 13,14-dihydro-15-keto-16R,S-fluoro-11-dehydroxy-11R-methyl-PGE2 ethyl ester] | 16 | 17 | 27 |  |
| CCOC(=O)CCC/C=C\C[C@H]1C(=O)C[C@@H](O)[C@@H]1CCC(=O)CCCC(C)C [Compound 44, 13,14-dihydro-15-keto-19-methyl-PGE2 ethyl ester] | 16 | 20 | 30 |  |
| CCCCCC(=O)CC[C@H]1[C@H](O)CC(=O)[C@@H]1CC(=O)CCCCC(=O)O [Compound 5, 13,14-dihydro-6,15-diketo-PGE1, reference compound] | 4 | -4 | 0 |  |
| COCCCCCC(=O)CC[C@H]1[C@H](O)CC(=O)[C@@H]1C/C=C\CCCC(=O)OC [Compound 45, 13,14-dihydro-15-keto-20-methoxy-PGE2 methyl ester] | 10 | 2 | 4 |  |
